Source: article PMC11025159 (Journal of Translational Medicine, 2024)
Where “and” joins values, the source holds several entries; their conditions need not be identical. Equal values may be shown once.

Legend:
JAK3 = target: T1, JAK3 (Homo sapiens, UniProt P52333); assay: Cell-free kinase assay JAK3; type: biochemical
T1 construct: purchased Promega Corporation V3701
T1 sequence (P52333 1-1124): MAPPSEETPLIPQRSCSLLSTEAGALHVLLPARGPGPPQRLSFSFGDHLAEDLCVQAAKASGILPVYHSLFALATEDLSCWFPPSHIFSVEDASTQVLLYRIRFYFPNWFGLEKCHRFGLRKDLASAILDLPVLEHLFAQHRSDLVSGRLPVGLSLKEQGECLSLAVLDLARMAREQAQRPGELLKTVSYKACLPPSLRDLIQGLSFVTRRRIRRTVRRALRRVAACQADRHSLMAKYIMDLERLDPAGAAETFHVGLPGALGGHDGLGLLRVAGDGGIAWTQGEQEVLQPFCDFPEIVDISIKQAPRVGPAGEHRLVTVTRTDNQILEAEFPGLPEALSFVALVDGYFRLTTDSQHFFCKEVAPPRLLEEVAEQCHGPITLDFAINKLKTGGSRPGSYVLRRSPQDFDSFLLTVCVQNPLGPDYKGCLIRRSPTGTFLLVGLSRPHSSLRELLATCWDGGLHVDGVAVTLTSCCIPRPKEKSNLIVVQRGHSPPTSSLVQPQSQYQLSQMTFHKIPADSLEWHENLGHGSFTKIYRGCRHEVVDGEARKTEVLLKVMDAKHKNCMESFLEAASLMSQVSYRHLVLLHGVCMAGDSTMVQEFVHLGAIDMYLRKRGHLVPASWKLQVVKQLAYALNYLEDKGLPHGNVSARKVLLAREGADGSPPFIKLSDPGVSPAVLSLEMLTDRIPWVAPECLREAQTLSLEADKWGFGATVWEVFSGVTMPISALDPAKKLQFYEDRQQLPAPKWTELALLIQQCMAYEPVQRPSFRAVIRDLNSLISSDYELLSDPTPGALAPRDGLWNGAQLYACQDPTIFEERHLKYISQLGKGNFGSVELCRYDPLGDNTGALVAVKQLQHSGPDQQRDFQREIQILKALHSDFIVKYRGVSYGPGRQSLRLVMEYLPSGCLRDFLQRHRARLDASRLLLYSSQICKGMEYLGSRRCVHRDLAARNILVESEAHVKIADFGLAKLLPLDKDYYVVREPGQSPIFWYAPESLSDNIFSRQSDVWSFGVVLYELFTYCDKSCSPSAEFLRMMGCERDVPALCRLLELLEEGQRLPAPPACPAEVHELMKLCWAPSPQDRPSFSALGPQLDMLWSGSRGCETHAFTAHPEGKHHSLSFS
Experimental: (§1) The cell-free kinase assays of small molecules were determined by following the manufacturer-recommended protocols. Different concentrations in triplicate were used to determine the IC50 value of the hit molecules (active molecules). For data analysis, GraphPad Prism V9.5 Software and a sigmoidal dose–response (variable slope) equation were used. Each value represents an average of three replicates per concentration.

IGF-1R = target: T2, IGF-1R (Homo sapiens, UniProt P08069); assay: Cell-free kinase assay IGF-1R; type: biochemical
T2 construct: purchased Promega Corporation V3581
Experimental: as §1

PI-3-K α = target: T3, PI-3-K α (Homo sapiens, UniProt P42336); assay: Cell-free kinase assay PI-3-K α; type: biochemical; settings: Km ATP
T3 construct: purchased Promega Corporation V1690
Experimental: as §1

PI-3-K γ = target: T4, PI-3-K γ (Homo sapiens, UniProt P48736); assay: Cell-free kinase assay PI-3-K γ; type: biochemical
T4 construct: purchased Promega Corporation V1690
Experimental: as §1

HEK-293 = assay: MTT cell viability assay HEK-293; type: cell-based, human
Experimental: Cell viability was evaluated using an MTT colorimetric assay. Cells were seeded (10^5 cells/mL) in 96-well plates and allowed to grow overnight at 37 ℃ with 5% CO2 in a cell-culture incubator. On the following day, the cells were treated with small molecules at different concentrations (0.2–10 micro-molar) or vehicle (DMSO). Cells were then further incubated for 48 h.

[1] = system: Murine macrophages (J774a.1); assay: Cytokines from LPS primed macrophages (ELISA); type: cell-based; settings: dose-dependent
Experimental: The supernatant was collected and stored at −20 ℃ for further cytokines analysis. The level of cytokines (TNF-α, IL1-β, and IL-6) was analyzed by sandwich ELISA as per the manufacturer protocol (BD Biosciences). In brief, capture antibodies were coated in the 96-well ELISA plate (Nunc) in respective coating buffer at 4 ℃ overnight. The plate was washed 4 times with washing buffer and blocked with the recommended blocking buffer for 1 h at room temperature. After incubation, plates were washed 4 times, added with sample and standard, and further incubated for another 2 h. Plates were then washed 4 times, added with detection antibody in combination of HRP for 1 h, and finally again washed 5 times. HRP substrate (TMB) was added and allowed to develop observable colour, and the reaction was stopped by adding 2 N H2SO4, and absorbance was recorded at 450 nm with 570 nm correction.

[2] = rat, in vivo
[3] = Body weight of athymic nude mice during topical treatment; type: in vivo, athymic nude mice (NU/J Foxn1nu); settings: individual mice
Experimental: . The groups are as follows: Group 1-Control (untreated), Group 2-Vehicle control, Group 3-tofacitinib citrate (0.8 mg/Kg), Group 4-tofacitinib citrate (0.08 mg/Kg), Group 5-MJ04 (0.08 mg/Kg), Group 6-MJ04 (0.04 mg/Kg), Group 7-MJ04 (0.016 mg/Kg), Group 8-baricitinib (0.1 mg/Kg), Group 9-baricitinib (0.04 mg/Kg), and Group 10-baricitinib (0.02 mg/Kg). At the end of the experiment, skin samples were collected and preserved in 10% neutral buffered formalin for tissue sectioning and staining using haematoxylin and eosin (H&E). […]

T2 sequence (P08069 31-1367): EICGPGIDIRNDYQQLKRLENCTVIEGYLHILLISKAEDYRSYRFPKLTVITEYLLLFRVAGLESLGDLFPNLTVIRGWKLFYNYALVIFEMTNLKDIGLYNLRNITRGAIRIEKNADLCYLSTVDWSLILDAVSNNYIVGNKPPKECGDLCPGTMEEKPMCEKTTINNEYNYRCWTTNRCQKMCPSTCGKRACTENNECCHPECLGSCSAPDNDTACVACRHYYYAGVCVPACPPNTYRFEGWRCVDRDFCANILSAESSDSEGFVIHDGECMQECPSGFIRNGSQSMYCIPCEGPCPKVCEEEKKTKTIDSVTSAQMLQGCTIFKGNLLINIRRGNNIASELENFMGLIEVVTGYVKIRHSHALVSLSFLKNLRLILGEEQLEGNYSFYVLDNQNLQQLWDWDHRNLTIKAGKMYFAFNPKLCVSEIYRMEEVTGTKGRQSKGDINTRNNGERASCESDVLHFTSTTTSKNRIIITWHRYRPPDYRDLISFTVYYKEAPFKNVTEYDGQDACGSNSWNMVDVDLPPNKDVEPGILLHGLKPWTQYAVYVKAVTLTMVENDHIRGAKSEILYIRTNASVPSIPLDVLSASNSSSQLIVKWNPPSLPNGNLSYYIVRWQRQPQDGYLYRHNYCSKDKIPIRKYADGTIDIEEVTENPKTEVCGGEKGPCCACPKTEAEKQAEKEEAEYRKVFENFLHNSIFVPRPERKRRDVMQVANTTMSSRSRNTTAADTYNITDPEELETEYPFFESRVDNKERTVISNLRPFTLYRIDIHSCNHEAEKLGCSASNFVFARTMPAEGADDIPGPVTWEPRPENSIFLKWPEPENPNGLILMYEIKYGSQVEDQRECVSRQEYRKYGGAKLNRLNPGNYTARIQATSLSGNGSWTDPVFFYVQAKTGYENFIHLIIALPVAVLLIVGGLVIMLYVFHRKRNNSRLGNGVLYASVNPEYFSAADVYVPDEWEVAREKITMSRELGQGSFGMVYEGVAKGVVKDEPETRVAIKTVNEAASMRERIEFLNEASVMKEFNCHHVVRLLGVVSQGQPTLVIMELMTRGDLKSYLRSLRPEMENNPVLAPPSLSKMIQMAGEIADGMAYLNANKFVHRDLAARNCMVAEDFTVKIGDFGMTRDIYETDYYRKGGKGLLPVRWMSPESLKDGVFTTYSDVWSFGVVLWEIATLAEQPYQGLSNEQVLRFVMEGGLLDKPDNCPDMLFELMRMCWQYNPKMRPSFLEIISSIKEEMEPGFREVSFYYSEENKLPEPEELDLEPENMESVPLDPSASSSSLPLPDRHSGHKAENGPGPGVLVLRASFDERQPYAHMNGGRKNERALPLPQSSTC
T4 sequence (P48736 whole entry): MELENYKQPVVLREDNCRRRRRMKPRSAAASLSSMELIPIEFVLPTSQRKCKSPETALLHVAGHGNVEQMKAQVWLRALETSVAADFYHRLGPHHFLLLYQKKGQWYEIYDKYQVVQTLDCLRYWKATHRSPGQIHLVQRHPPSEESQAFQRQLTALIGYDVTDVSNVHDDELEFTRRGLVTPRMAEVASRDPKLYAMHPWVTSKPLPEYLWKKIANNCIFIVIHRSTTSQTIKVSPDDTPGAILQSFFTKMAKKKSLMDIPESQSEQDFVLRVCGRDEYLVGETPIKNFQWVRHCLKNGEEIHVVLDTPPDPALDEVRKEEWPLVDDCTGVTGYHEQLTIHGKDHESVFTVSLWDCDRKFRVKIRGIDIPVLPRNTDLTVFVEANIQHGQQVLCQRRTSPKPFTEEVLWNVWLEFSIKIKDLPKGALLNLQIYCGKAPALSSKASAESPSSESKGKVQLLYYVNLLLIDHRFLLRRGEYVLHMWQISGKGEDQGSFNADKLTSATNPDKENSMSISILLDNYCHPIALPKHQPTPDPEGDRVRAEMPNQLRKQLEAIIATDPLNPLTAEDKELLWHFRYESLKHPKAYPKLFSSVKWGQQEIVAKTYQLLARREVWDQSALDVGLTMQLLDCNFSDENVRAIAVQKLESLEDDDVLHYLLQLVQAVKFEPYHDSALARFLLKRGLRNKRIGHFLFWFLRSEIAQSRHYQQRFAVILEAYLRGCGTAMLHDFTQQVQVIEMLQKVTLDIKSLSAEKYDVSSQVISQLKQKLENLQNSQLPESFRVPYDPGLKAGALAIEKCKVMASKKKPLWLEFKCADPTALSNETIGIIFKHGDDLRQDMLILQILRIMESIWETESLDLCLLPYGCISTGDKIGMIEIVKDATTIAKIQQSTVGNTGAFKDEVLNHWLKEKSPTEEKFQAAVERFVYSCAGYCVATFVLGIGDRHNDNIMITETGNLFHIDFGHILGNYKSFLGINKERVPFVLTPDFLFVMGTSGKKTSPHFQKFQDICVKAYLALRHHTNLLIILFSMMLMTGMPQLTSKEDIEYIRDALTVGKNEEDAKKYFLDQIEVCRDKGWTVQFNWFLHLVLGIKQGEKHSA
T3 sequence (P42336 whole entry): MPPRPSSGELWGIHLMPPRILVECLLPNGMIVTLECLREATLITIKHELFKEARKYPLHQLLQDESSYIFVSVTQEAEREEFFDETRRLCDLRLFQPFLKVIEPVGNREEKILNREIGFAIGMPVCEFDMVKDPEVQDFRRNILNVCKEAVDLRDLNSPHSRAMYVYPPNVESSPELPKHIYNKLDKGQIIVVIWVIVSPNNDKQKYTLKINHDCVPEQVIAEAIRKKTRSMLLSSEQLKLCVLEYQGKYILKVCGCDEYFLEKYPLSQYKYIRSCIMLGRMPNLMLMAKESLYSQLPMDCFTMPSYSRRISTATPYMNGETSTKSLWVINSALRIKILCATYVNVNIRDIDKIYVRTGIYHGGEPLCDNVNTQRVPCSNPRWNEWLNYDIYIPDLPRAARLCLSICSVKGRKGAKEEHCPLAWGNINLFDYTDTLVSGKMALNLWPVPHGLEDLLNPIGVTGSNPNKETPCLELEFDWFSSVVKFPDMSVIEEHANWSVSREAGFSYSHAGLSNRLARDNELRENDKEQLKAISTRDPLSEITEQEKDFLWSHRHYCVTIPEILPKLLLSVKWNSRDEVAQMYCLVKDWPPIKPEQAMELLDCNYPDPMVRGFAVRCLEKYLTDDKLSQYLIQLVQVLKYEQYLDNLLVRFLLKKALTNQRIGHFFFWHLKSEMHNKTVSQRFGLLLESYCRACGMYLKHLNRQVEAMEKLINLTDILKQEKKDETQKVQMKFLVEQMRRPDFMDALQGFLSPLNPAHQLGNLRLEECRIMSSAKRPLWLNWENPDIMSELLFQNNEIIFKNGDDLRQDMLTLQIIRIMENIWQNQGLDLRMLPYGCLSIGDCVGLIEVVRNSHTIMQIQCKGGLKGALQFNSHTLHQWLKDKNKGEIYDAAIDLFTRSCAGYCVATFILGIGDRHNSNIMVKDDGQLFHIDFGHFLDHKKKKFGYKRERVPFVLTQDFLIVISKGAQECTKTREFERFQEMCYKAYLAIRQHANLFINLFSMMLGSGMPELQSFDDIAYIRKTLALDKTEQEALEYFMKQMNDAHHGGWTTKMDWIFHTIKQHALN
T3 sequence (P27986 whole entry partner): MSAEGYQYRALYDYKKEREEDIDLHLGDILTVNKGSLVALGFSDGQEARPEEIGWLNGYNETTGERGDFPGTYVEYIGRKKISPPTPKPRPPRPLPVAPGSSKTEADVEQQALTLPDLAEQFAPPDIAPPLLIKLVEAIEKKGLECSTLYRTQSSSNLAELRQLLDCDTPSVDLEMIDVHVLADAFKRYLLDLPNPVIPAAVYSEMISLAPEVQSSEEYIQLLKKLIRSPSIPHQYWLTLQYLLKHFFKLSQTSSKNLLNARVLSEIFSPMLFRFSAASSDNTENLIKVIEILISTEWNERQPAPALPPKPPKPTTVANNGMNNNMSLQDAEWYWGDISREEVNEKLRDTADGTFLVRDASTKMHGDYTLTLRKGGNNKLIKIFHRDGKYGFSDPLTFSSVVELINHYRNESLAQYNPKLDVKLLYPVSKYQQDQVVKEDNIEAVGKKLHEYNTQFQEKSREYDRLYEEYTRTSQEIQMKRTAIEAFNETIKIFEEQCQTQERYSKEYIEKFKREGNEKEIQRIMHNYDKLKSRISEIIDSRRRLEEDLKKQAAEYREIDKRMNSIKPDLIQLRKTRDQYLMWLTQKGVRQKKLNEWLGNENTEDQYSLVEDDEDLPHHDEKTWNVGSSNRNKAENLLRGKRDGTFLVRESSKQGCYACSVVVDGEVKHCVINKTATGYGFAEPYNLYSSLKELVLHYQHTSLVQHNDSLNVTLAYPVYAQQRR

## Fc1ccc(-c2cnc3[nH]cc(-c4ccnc(NC5CC5)n4)c3c2)cc1 [MJ04]
JAK3; 1mM ATP
  IC50: 28.5 nM
JAK3; JAK 3
  Fold of selectivity vs. JAK3: 1
JAK3; Km ATP (2.5 µM)
  IC50: 2.03 nM
JAK3; structure-activity statement
  inhibitory activity against JAK3 in kinase assays and in MTT assays: significant inhibitory activity
IGF-1R; IGF-1R
  Fold of selectivity vs. JAK3: 476
IGF-1R; Km ATP
  IC50: 967 nM
PI-3-K α
  IC50: > 10000 nM
PI-3-K γ; Km ATP
  IC50: 3670 nM
PI-3-K γ; PI-3-K γ
  Fold of selectivity vs. JAK3: 1806
HEK-293
  safety ratio (IC50 against HEK293 normal cell line versus IC50 in A549 cancer cell line): ~26
HEK-293; Homo sapiens, HEK293, read-out: IC50 HEK-293, MTT, 48 h, normal cell line
  IC50: > 100000 nM
[1]
  level of proinflammatory cytokines TNF-α, IL1-β and IL-6: dampens the level of proinflammatory cytokines
[2]; Wistar, 14 days
  Globally Harmonized Classification System (GHS) category: Category-5
[2]; 2000 mg/kg
  ALB: 4.37 ± 2.09 g/dL
  ALP: 380.33 ± 161.30 U/L
  ALT: 77.33 ± 3.93 U/L
  AST: 183.63 ± 16.64 U/L
  BUN: 13.99 ± 2.92 mg/dL
  CR: 0.71 ± 0.18 mg/dL
  Ca: 11.90 ± 0.36 mg/dL
  GLB: 3.21 ± 0.09
  Glucose: 91.13 ± 17.80 mg/dL
  Na: 145.57 ± 1.71 mM
  P: 4.84 ± 1.10 mg/dL
  TB: 0.11 ± 0.03 mg/dL
  TG: 75.33 ± 8.33 mg/dL
  TP: 7.05 ± 0.25 g/dL
  Urea: 36.57 ± 8.43 mg/dL

## CCS(=O)(=O)N1CC(CC#N)(n2cc(-c3ncnc4[nH]ccc34)cn2)C1 [Baricitinib, baricitinib, reference compound]
[3]; 0.02 mg/kg, DAY 1
  Weight of nude mice (NU/J Foxn1nu): 17.9 and 18.3 and 18.5 and 18.7 and 19.2
[3]; 0.02 mg/kg, DAY 7
  Weight of nude mice (NU/J Foxn1nu): 19.4 and 19.8 and 20.2 and 20.4 and 20.7
[3]; 0.02 mg/kg, DAY 14
  Weight of nude mice (NU/J Foxn1nu): 21.2 and 21.3 and 21.7 and 22.1 and 22.5
[3]; 0.02 mg/kg, DAY 21
  Weight of nude mice (NU/J Foxn1nu): 22.6 and 22.8 and 23.2 and 24.2 and 24.4
[3]; 0.02 mg/kg, DAY 28
  Weight of nude mice (NU/J Foxn1nu): 24.3 and 24.8 and 24.9 and 25.8 and 26.2
[3]; 0.04 mg/kg, DAY 1
  Weight of nude mice (NU/J Foxn1nu): 17.9 and 18.5 and 18.6 and 18.7 and 19.1
[3]; 0.04 mg/kg, DAY 7
  Weight of nude mice (NU/J Foxn1nu): 19.2 and 19.8 and 20.1 (2×) and 20.5
[3]; 0.04 mg/kg, DAY 14
  Weight of nude mice (NU/J Foxn1nu): 20.8 and 20.9 and 21.4 and 21.5 and 21.8
[3]; 0.04 mg/kg, DAY 21
  Weight of nude mice (NU/J Foxn1nu): 22.4 and 22.6 and 23.1 and 23.3 and 23.5
[3]; 0.04 mg/kg, DAY 28
  Weight of nude mice (NU/J Foxn1nu): 24.6 and 24.8 and 25.3 and 25.4 and 25.7
[3]; 0.1 mg/kg, DAY 1
  Weight of nude mice (NU/J Foxn1nu): 18.5 and 18.6 and 18.7 and 19.3 and 18.8
[3]; 0.1 mg/kg, DAY 7
  Weight of nude mice (NU/J Foxn1nu): 19.7 and 19.8 and 21.1 and 20.1 and 20.4
[3]; 0.1 mg/kg, DAY 14
  Weight of nude mice (NU/J Foxn1nu): 21.3 and 22.9 and 21.8 and 22.1
[3]; 0.1 mg/kg, DAY 21
  Weight of nude mice (NU/J Foxn1nu): 22.6 and 23.2 and 24.3 and 23.6 and 23.8
[3]; 0.1 mg/kg, DAY 28
  Weight of nude mice (NU/J Foxn1nu): 25.3 and 24.8 and 25.7 and 25.8 and 25.4
